Results: patent publication US20100099561A1, “HETEROBICYCLIC ALKYLTHIO-BRIDGED ISOXAZOLINES” (E.I. DU PONT DE NEMOURS AND COMPANY, priority 2008, published 2010)

Experiments:
Type in all cases: in vivo
[1] = test system: barnyardgrass (Echinochloa crus-galli); experiment: Test A preemergence, barnyardgrass; settings: 0 to 100 scale (0 no effect, 100 complete control)
Procedure, shortened: (§1)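 Visual injury rating, 0 = no effect to 100 = complete control, made roughly ten days after treatment by comparison with untreated controls. Preemergence: directed soil spray onto freshly planted loam/sand. Postemergence: foliar application at one- to two-leaf stage, 2–10 cm height.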

[2] = test system: barnyardgrass (Echinochloa crus-galli); experiment: Test A postemergence, barnyardgrass; settings: 0 to 100 scale (0 no effect, 100 complete control)
Procedure, shortened: as §1

[3] = test system: morningglory (Ipomoea spp.); experiment: Test A postemergence, morningglory; settings: 0 to 100 scale (0 no effect, 100 complete control)
Procedure, shortened: as §1

corn (Zea mays) = experiment: Test A postemergence, corn; settings: 0 to 100 scale (0 no effect, 100 complete control)
Procedure, shortened: as §1

[4] = test system: downy bromegrass (Bromus tectorum); experiment: Test B preemergence, downy bromegrass; settings: scale 0 to 100
Procedure, shortened: (§2)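 Visual injury rating, 0 (no effect) to 100 (complete control), made versus controls after 13 to 15 days in the greenhouse. Compounds were applied preemergence in a surfactant-containing non-phytotoxic solvent to seeds planted in loam/sand soil.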

[5] = test system: Italian ryegrass (Lolium multiflorum); experiment: Test B preemergence, Italian ryegrass; settings: Preemergence, scale 0 to 100
Procedure, shortened: as §2

[6] = test system: Surinam grass (Brachiaria decumbens); experiment: Test B preemergence, Surinam grass; settings: Preemergence, scale 0 to 100
Procedure, shortened: as §2

[7] = test system: cocklebur (Xanthium strumarium); experiment: Test B preemergence, cocklebur; settings: scale 0 to 100
Procedure, shortened: as §2

[8] = test system: large crabgrass (Digitaria sanguinalis); experiment: Test B preemergence, large crabgrass; settings: scale 0 to 100
Procedure, shortened: as §2

[9] = test system: woolly cupgrass (Eriochloa villosa); experiment: Test B preemergence, woolly cupgrass; settings: scale 0 to 100
Procedure, shortened: as §2

[10] = test system: goosegrass (Eleusine indica); experiment: Test B preemergence, goosegrass; settings: scale 0 to 100
Procedure, shortened: as §2

[11] = test system: lambsquarters (Chenopodium album); experiment: Test B preemergence, lambsquarters; settings: scale 0 to 100
Procedure, shortened: as §2

[12] = test system: pigweed (Amaranthus retroflexus); experiment: Test B preemergence, pigweed; settings: scale 0 to 100
Procedure, shortened: as §2

[13] = test system: ragweed (common ragweed, Ambrosia elatior); experiment: Test B preemergence, ragweed; settings: scale 0 to 100
Procedure, shortened: as §2

soybean (Glycine max) = experiment: Test B preemergence, soybean; settings: Preemergence, scale 0 to 100
Procedure, shortened: as §2

[14] = test system: sunflower (common oilseed sunflower, Helianthus annuus); experiment: Test B preemergence, sunflower; settings: Preemergence, scale 0 to 100
Procedure, shortened: as §2

[15] = test system: umbrella sedge (Cyperus difformis); experiment: Test B flooded paddy test, umbrella sedge; settings: Flood, scale 0 to 100
Procedure, shortened: (§3)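 2-leaf plants; pots flooded 3 cm above soil; compound added to paddy water; depth maintained. Greenhouse 13–15 d. Visual rating vs controls, 0 (no effect) to 100 (complete control); dash = no result.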

[16] = test system: barnyardgrass (Echinochloa crus-galli); experiment: Test B flooded paddy test, barnyardgrass; settings: Flood
Procedure, shortened: as §3

CC1(C)CC(S(=O)(=O)Cc2c(C(F)(F)F)nc3n(c2=O)CCCC3)=NO1 [Compound 8, 3-[[(4,5-dihydro-5,5-dimethyl-3-isoxazolyl)sulfonyl]methyl]-6,7,8,9-tetrahydro-2-(trifluoromethyl)-4H-pyrido[1,2-α]pyrimidin-4-one]
Plant response rating, Barnyardgrass ([1]; 125 g ai/ha): 90 | Plant response rating, Barnyardgrass ([1]; 500 g ai/ha): 90 | Plant response rating, Barnyardgrass ([2]; 125 g ai/ha): 80 | Plant response rating, Barnyardgrass ([2]; 500 g ai/ha): 90 | Plant response rating, Morningglory ([3]; 125 g ai/ha): 60 | Plant response rating, Morningglory ([3]; 500 g ai/ha): 90 | Plant response rating, Corn (corn (Zea mays); 125 g ai/ha): 0 | Plant response rating, Corn (corn (Zea mays); 500 g ai/ha): 60 | Plant response rating, Bromegrass, Downy ([4]; 16 g ai/ha): 0 | Plant response rating, Bromegrass, Downy ([4]; 31 g ai/ha): 0 | Plant response rating, Bromegrass, Downy ([4]; 62 g ai/ha): 20 | Plant response rating, Bromegrass, Downy ([4]; 125 g ai/ha): 40 | Plant response rating, Ryegrass, Italian ([5]; 16 g ai/ha): 0 | Plant response rating, Ryegrass, Italian ([5]; 31 g ai/ha): 30 | Plant response rating, Ryegrass, Italian ([5]; 62 g ai/ha): 35 | Plant response rating, Ryegrass, Italian ([5]; 125 g ai/ha): 100 | Plant response rating, Surinam Grass ([6]; 16 g ai/ha): 65 | Plant response rating, Surinam Grass ([6]; 31 g ai/ha): 95 | Plant response rating, Surinam Grass ([6]; 62 g ai/ha): 100 | Plant response rating, Surinam Grass ([6]; 125 g ai/ha): 100 | Plant response rating, Cocklebur ([7]; 16 g ai/ha): 0 | Plant response rating, Cocklebur ([7]; 31 g ai/ha): 0 | Plant response rating, Cocklebur ([7]; 62 g ai/ha): 0 | Plant response rating, Cocklebur ([7]; 125 g ai/ha): 0 | Plant response rating, Crabgrass, Large ([8]; 16 g ai/ha): 95 | Plant response rating, Crabgrass, Large ([8]; 31 g ai/ha): 95 | Plant response rating, Crabgrass, Large ([8]; 62 g ai/ha): 100 | Plant response rating, Crabgrass, Large ([8]; 125 g ai/ha): 100 | Plant response rating, Cupgrass, Woolly ([9]; 16 g ai/ha): 85 | Plant response rating, Cupgrass, Woolly ([9]; 31 g ai/ha): 95 | Plant response rating, Cupgrass, Woolly ([9]; 62 g ai/ha): 95 | Plant response rating, Cupgrass, Woolly ([9]; 125 g ai/ha): 100 | Plant response rating, Goosegrass ([10]; 16 g ai/ha): 98 | Plant response rating, Goosegrass ([10]; 31 g ai/ha): 98 | Plant response rating, Goosegrass ([10]; 62 g ai/ha): 100 | Plant response rating, Goosegrass ([10]; 125 g ai/ha): 100 | Plant response rating, Lambsquarters ([11]; 16 g ai/ha): 55 | Plant response rating, Lambsquarters ([11]; 31 g ai/ha): 98 | Plant response rating, Lambsquarters ([11]; 62 g ai/ha): 100 | Plant response rating, Lambsquarters ([11]; 125 g ai/ha): 100 | Plant response rating, Pigweed ([12]; 16 g ai/ha): 0 | Plant response rating, Pigweed ([12]; 31 g ai/ha): 20 | Plant response rating, Pigweed ([12]; 62 g ai/ha): 95 | Plant response rating, Pigweed ([12]; 125 g ai/ha): 100 | Plant response rating, Ragweed ([13]; 16 g ai/ha): 0 | Plant response rating, Ragweed ([13]; 31 g ai/ha): 0 | Plant response rating, Ragweed ([13]; 62 g ai/ha): 25 | Plant response rating, Ragweed ([13]; 125 g ai/ha): 60 | Plant response rating, Soybean (soybean (Glycine max); 16 g ai/ha): 0 | Plant response rating, Soybean (soybean (Glycine max); 31 g ai/ha): 0 | Plant response rating, Soybean (soybean (Glycine max); 62 g ai/ha): 0 | Plant response rating, Soybean (soybean (Glycine max); 125 g ai/ha): 0 | Plant response rating, Sunflower ([14]; 16 g ai/ha): 0 | Plant response rating, Sunflower ([14]; 31 g ai/ha): 15 | Plant response rating, Sunflower ([14]; 62 g ai/ha): 40 | Plant response rating, Sunflower ([14]; 125 g ai/ha): 45 | Plant response rating, Sedge, Umbrella ([15]; 62 g ai/ha): 0 | Plant response rating, Sedge, Umbrella ([15]; 250 g ai/ha): 20 | Plant response rating, Barnyardgrass ([16]; 62 g ai/ha, scale 0 to 100): 0 | Plant response rating, Barnyardgrass ([16]; 250 g ai/ha, scale 0 to 100 (0 no effect, 100 complete control)): 0
